Values of other authors as cited in patent US20250339514A1, “SINGLE-AND MULTI-EPITOPE PEPTIDE AND MRNA VACCINES TO GENERATE TOLEROGENIC EFFECTS FOR ALLERGIC AND AUTOIMMUNE DISEASE BY TARGETING LIVER SINUSOIDAL ENDOTHELIAL CELLS” (The Regents of the University of California, priority 2022, published 2025).

Tests used:
MRL/lpr mice = conditions: repeated administration; cited from earlier work
lupus patients = conditions: Phase 1 and Phase 2 clinical trials; cited from earlier work

Substance: RIHMVYSKRpSGKPRGYAFIEY [P140]
- T-cell epitope spreading to other U1-70K regions (MRL/lpr mice): transiently abolishing T-cell epitope spreading
- clinical efficacy (lupus patients): effective in treating lupus patients
